# Assay results published in patent US9505768B2, “Compositions and methods for modulating TLR4” (The Regents of the University of California, priority 2012, dated 2016).
# “Also recorded” adds a separate entry of the source. Read-outs that look alike come from different tables or passages of the source.
# What was measured:
# mBMDC = experiment: MTT viability assay in mBMDC; details: 18 h, concentrations up to 10 μM
# Method: Cytotoxicity of the compounds was evaluated by MTT assay as a measure of viability. mBMDC (10^5/well) were incubated with graded concentrations of the compounds for 18 h and compared with vehicle (0.5% DMSO) and MPLA (1 μg/mL). […] (FIG. 6B) The cells were lysed after the overnight incubation with MTT reagents, and absorbance at 570 nm was measured, subtracting the reference absorbance at 650 nm. Data shown are mean±SEM of triplicates and are representative of two independent experiments showing similar results.
# human TLR4 = molecular target: T1, human TLR4 (Homo sapiens, UniProt O00206+Q9Y6Y9); experiment: Human TLR4 HEK Blue NFκB/SEAP reporter assay; format: cell-based; details: for human TLR4, values normalized to Cmpd 1: hTLR4 HEK293 transfectoma, all compounds tested at 10 μM, Cmpd 1 set at 100
# T1 construct: host or cells: HEK293 (HEK Blue) cells with NFκB/SEAP reporter
# T1 sequence (O00206 24-839): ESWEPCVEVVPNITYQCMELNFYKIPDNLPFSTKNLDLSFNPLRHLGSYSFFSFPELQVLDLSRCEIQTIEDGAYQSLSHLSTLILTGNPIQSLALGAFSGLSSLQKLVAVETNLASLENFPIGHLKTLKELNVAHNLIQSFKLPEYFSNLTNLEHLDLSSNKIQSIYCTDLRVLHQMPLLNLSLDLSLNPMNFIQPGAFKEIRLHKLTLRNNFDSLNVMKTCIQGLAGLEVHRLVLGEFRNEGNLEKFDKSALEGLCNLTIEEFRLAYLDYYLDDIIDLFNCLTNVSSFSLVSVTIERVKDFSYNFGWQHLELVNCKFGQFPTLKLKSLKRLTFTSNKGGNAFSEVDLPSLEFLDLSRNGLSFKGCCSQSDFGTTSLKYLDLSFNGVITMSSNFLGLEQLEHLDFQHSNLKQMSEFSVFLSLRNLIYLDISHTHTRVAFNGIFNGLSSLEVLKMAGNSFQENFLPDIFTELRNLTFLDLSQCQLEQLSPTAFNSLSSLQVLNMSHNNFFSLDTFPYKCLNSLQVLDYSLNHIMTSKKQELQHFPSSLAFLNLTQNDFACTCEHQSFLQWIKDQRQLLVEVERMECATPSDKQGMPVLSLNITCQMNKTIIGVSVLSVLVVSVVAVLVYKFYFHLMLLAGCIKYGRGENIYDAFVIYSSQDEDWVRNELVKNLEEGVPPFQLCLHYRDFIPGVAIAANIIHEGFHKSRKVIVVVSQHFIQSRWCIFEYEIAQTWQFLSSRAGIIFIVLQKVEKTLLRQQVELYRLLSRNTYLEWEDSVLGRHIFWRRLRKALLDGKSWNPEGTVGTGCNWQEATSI
# T1 sequence (Q9Y6Y9 19-160): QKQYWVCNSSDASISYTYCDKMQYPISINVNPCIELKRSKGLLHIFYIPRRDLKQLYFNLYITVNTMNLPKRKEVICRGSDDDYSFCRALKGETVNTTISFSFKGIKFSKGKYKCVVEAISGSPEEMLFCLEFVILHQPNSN
# Method: (§1) The above assays were utilized to compare the derivatives of the lead pyrimidoindole for their ability to activate mouse and human TLR4. […] Each cytokine induction curve was first converted to a percent activity curve, and then the AUC of the percent activity curve was calculated. The process of converting to a percent activity curve allowed subtracting background and adjusting for plate-to-plate variation.
# (§2) The culture supernatants were harvested after a 20-24 h incubation period. SEAP activity in the supernatants was determined by a colorimetric assay, using either the SEAPorter Assay Kit (Imgenex), with absorbance read at 405 nm, or QuantiBlue (Invivogen), with absorbance read at 630 nm.
# mouse TLR4 = molecular target: T2, mouse TLR4 (Mus musculus, UniProt Q9JHF9+Q9QUK6); experiment: Murine TLR4 HEK Blue NFκB/SEAP reporter assay; format: cell-based; details: for mouse TLR4, area under curve (AUC) values normalized to Cmpd 1: mTLR4 HEK transfectoma, 312 nM to 10 μM, Cmpd 1 set at 100
# T2 construct: host or cells: HEK293 (HEK Blue) cells with NFκB/SEAP reporter
# T2 sequence (Q9QUK6 26-835): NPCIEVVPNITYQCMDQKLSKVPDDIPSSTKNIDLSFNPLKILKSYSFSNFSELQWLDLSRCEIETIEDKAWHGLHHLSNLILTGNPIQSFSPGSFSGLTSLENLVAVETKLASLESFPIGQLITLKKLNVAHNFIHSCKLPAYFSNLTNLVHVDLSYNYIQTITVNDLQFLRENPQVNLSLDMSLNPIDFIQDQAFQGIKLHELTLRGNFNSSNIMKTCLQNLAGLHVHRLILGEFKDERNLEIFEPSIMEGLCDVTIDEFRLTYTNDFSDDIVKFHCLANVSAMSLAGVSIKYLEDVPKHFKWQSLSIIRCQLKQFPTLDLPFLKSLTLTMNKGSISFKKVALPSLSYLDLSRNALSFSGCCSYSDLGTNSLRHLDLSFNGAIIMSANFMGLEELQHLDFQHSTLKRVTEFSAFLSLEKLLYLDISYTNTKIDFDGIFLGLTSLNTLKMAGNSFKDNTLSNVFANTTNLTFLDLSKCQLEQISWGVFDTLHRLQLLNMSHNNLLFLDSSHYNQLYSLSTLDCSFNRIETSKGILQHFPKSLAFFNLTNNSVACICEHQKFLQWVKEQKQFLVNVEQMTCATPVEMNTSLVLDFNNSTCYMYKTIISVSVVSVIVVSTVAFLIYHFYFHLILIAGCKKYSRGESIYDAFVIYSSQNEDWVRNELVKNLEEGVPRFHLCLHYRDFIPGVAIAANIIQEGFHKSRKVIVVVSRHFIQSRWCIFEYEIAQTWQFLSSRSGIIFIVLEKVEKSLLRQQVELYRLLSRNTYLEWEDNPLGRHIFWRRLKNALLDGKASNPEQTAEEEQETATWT
# T2 sequence (Q9JHF9 19-160): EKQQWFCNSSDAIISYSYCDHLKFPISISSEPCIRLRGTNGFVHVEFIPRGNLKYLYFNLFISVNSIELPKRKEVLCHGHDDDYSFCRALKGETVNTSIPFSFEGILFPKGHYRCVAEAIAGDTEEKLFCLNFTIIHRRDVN
# Method: as §1, §2
# [1] = test system: mouse bone marrow derived dendritic cells (mBMDC); experiment: IP-10 induction in mBMDC (ELISA), surrogate marker of type I IFN; format: cell-based; details: for IP-10 induction in LPS mutant (Trif lps/lps) cells: 5 μM overnight, vs C57BL/6 WT
# [2] = test system: TLR2, TLR3, TLR4/MD-2/CD14, TLR5, TLR7, TLR8, or TLR9 expressing HEK293 cells; details: 10 μM, 20-24 h, SEAP
# From the text: To identify the target receptor, we used HEK293 cells stably transfected with individual human (h) TLRs: TLR2, TLR3, TLR4/MD-2/CD14, TLR5, TLR7, TLR8, or TLR9 expressing HEK293 cells, along with an NFκB activation reporter producing secreted embryonic alkaline phosphatase (SEAP).
# [3] = test system: mouse bone marrow derived dendritic cells (mBMDC); experiment: IL-6 induction in mouse bone marrow derived dendritic cells (ELISA); format: cell-based; details: relative to Cmpd 1 / within series
# Method: as §1
# (§3) BMDC were prepared from C57BL/6 mice as described. See e.g., Wu, C. […] BMDC (10^5 cells per well) were plated in 96-well plates in 200 μL of complete RPMI1640 supplemented with 10% fetal calf serum (FCS; Sigma Aldrich), 100 U/mL penicillin, and 100 μg/mL streptomycin (Invitrogen). […] After 18 h incubation, the cell culture supernatants were collected. LPS (purified LPS, Invivogen, San Diego, Calif.) or MPLA (1 μg/mL synthetic MPLA, Invivogen, San Diego, Calif.) were used as positive controls. […] The AUC was calculated from BMDC dose-response curves using Prism 5 (GraphPad, San Diego). Each cytokine induction curve was first converted to a percent activity curve, and then the AUC of the percent activity curve was calculated. The process of converting to a percent activity curve allowed subtracting background and adjusting for plate-to-plate variation.
# [4] = test system: mouse bone marrow derived dendritic cells (mBMDC)
# Method: 0.5% DMSO in saline served as a vehicle controls. The levels type I IFN were determined using L929-ISRE luciferase reporter cell line using murine IFN beta standard (FIG. 7A). IP-10 levels were determined by ELISA (FIG. 7B). Data shown are mean±SEM of triplicates in representative of two independent experiments showing similar results. * denotes p<0.05 was considered as significant compared to vehicle using one way ANOVA with Dunnett's post hoc testing.
# L929 cells stably expressing an interferon sensitive response element (ISRE) luciferase reporter construct were kindly provided by Dr. B. Beutler (UT Southwestern, Texas). […] The bioactivity of type I IFN in mBMDC supernatants was measured by luciferase assay using L929-ISRE cells as described previously. […] Thus, 50 μL of μBMDC supernatant was incubated with L929-ISRE cells in 50 μL of DMEM for 6 h. Mu-IFN Beta Standard (PBL Interferon Source, Piscataway, N.J.) was used as a standard. The luciferase activities were measured by Steady-Glo luciferase assay buffer (Promega, Madison, Wis.).
# [5] = test system: mouse bone marrow derived dendritic cells (mBMDC); experiment: IL-6 induction in mouse bone marrow derived dendritic cells (ELISA); format: cell-based; details: for IL-6 secretion in MyD88 null dendritic cells: 5 μM overnight, vs C57BL/6 WT
# [6] = test system: human peripheral blood mononuclear cells (hPBMC); experiment: IL-8 release from human PBMC (ELISA); format: cell-based; details: compound 1 10 μM
# Method: Human PBMC were isolated from buffy coats obtained from the San Diego Blood Bank (San Diego, Calif.) as described previously. […] The levels of IL-8 in the supernatants were determined by ELISA (BD Biosciences, La Jolla, Calif.). Human cell cultures were treated with 10 ng/mL LPS as the positive control.
# C57BL/6 mice [7] = test system: C57BL/6 mice
# C57BL/6 mice [8] = experiment: Protection from LPS/galactosamine-induced lethal liver injury; format: in vivo, mouse; details: for serum TNFα: […] post challenge, compared to vehicle treated mice; for mice survived: i.p. pretreatment 500 nmol, LPS/galactosamine challenge next day; for Survival: i.p. pretreatment (500 nmol Cmpd, 40 μg MPLA), next day LPS 0.2 μg + galactosamine 12 mg per animal, survivors/treated
# Method: FIGS. 11A-11B depict that administration of Cmpd 42 and Cmpd 33 protects hosts from LPS-induced lethal liver injury. FIG. 11A: Schematic showing that C57BL/6 mice were intraperitoneously injected with 500 nmol Cmpd. 42 (n=11) or Cmpd 33 (n=11). 40 μg MPLA (n=9) and vehicle (n=9) were used as positive and negative controls, respectively. Next day, mice were challenged with LPS (0.2 μg/animal) and galactosamine (12 mg/animal). FIG. 11B: Histogram showing results of sera collected 1.5 h post challenge and measured for TNFα. *:p<0.05 compared to vehicle treated mice.
# Lipopolysaccharide (LPS), a TLR4 ligand, causes severe lethal liver injury when administered with galactosamine. Pretreatment of mice with MPLA is known to improve the survival in this model. To study whether Cmpd 42 and Cmpd 33 are able to act as immunomodulatory agents similar to MPLA, the mice were treated with Cmpd 42 or Cmpd 33 and challenged with LPS/galatosamine the next day, as depicted in FIG. 11A. Over 80% of Cmpd 42 and 100% of Cmpd 33-treated mice survived.
# [9] = test system: mouse bone marrow derived dendritic cells (mBMDC); experiment: IP-10 induction in mBMDC (ELISA), surrogate marker of type I IFN; format: cell-based; details: relative to Cmpd 1
# Method: In addition to the production of inflammatory cytokines (IL-6, IL-12, TNFα, etc.) mediated by NFκB activation, TLR4 signaling can result in the production of type I interferons, a feature that is not only important for activation of dendritic cells leading to good adjuvant activity, but would also be important for rapid defense against a variety of pathogens, particularly viruses. […] To determine the relative ability of all compounds to induce the production of type 1 IFN, each was evaluated in mouse bone marrow derived dendritic cells as shown in Tables 1-3.
# as §3
# In addition, the levels of IP-10, a surrogate marker of type I IFN, in the supernatants were determined by ELISA (R&D Systems, Minneapolis, Minn.).
# [10] = Oral bioavailability in mice (serum LC/MS); format: in vivo; details: mouse, C57BL/6 mice, 1 μmol oral vs 500 nmol i.v., AUC method
# Method: FIG. 14 depicts time course showing that Cmpd 42 is orally bioavailable in mice. C57BL/6 mice were intravenously (500 nmol) or orally (1 μmol) administered with Cmpd 42. Sera were collected at the indicated time point and concentration of the compound were measured by LC/MS. Legend: oral administration, closed circle; i.v. administration, closed box. X-axis: time (min). Y-axis: concentration of Cmpd 42 (nM).
# To test oral bioavailability, Cmpd 42 was orally or intravenously administered to C57BL/6 mice and the drug concentration in sera was measured. Results are depicted in FIG. 14.
# [11] = WT vs Cd14-/- mBMDC, 3.7 μM overnight
SMILES,cell viability (MTT) (mBMDC),"human TLR4, values normalized to Cmpd 1 (human TLR4)","mouse TLR4, area under curve (AUC) values normalized to Cmpd 1 (mouse TLR4)",IL-6 activity in mBMDC (in words) [3],serum TNFα (C57BL/6 mice [8]),mice survived (C57BL/6 mice [8]),Survival (C57BL/6 mice [8]),IP-10 production in mBMDC (in words) [9],IP-10 induction in LPS mutant (Trif lps/lps) cells [1],IL-6 secretion in MyD88 null dendritic cells [5],further results
"N#CCn1c2ccccc2c2nc(SCC(=O)NC3CCCCC3)n(-c3ccccc3)c(=O)c21 [Compound 51, 2-((5-(cyanomethyl)-4-oxo-3-phenyl-4,5-dihydro-3H-pyrimido[5,4-b]indol-2-yl)thio)-N-cyclohexylacetamide]",did not reduce cell viability,19,55,–,–,–,–,–,–,–,–
"CCCn1c2ccccc2c2nc(SCC(=O)NC3CCCCC3)n(-c3ccccc3)c(=O)c21 [Compound 48, N-cyclohexyl-2-((4-oxo-3-phenyl-5-propyl-4,5-dihydro-3H-pyrimido[5,4-b]indol-2-yl)thio)acetamide]",did not reduce cell viability,–,–,–,–,–,–,–,–,–,–
"O=C(CSc1nc2c([nH]c3ccccc32)c(=O)n1-c1ccccc1)NC1CCCCC1 [Compound 1, N-cyclohexyl-2-((4-oxo-3-phenyl-4,5-dihydro-3H-pyrimido[5,4-b]indol-2-yl)thio)acetamide]",–,100,100,the most active; also recorded: high IL-6,–,–,–,–,–,–,"IP-10 production [1]: dose-dependent response; IP-10 production in mBMDC (in words) [1]: high IP-10 production; IP-10 released by mBMDC cultures (average) [1]: 590.0 ± 10.5 pg/mL; TLR selectivity among TLR transfected HEK293 reporter cells [2]: only those expressing TLR4/MD-2/CD14 responded; human TLR4 reporter cell activation (in words) (human TLR4): dose-dependent activation; OD630 of human TLR4 reporter cells (human TLR4; 10 μM Cmpd 1): 0.88; CD14 dependence of type I IFN production [4, 11]: not dependent on CD14; type I IFN production ([4]; graded doses, mBMDC overnight): dose-dependent response; IL-6 released by mBMDC cultures (average, SD) ([5]; 5 μM Cmpd 1): 10.5 ng/mL; IL-6 secretion in TLR4 deficient vs wild-type mBMDC ([5]; 10 μM, 18 h): completely abrogated; CD14 dependence of IL-6 production [5, 11]: not dependent on CD14; also recorded: retains IL-6 activity; IL-8 released by hPBMC cultures (average, SD) [6]: 7.8 ± 0.8 ng/mL; mouse TLR4 reporter cell activation (in words) (mouse TLR4): dose-dependent activation; relative reporter activation, murine TLR4 cells (mouse TLR4; 5 μM Cmpd 1): 1.52±0.03"
"O=C(CSc1nc2c([nH]c3ccccc32)c(=O)n1-c1ccccc1)NCC1CCCO1 (stereo not drawn) [Compound 33, 2-((4-oxo-3-phenyl-4,5-dihydro-3H-pyrimido[5,4-b]indol-2-yl)thio)-N-((tetrahydrofuran-2-yl)methyl)acetamide]",–,13,21,diminished IL-6 release,significantly lower level,100%,11/11,nearly equivalent induction of IP-10,significantly decreased,significantly impaired,maximum tolerated dose relative to MPLA (C57BL/6 mice [7]; liver injury model with galactosamine): over 100 times
"Cn1c2ccccc2c2nc(SCC(=O)NC3CCCCC3)n(-c3ccccc3)c(=O)c21 [Compound 42, N-cyclohexyl-2-((5-methyl-4-oxo-3-phenyl-4,5-dihydro-3H-pyrimido[5,4-b]indol-2-yl)thio)acetamide]",did not reduce cell viability,92,100,high IL-6,significantly lower level,Over 80%,9/11,high IP-10 production,significantly decreased,significantly impaired,"mice survived (C57BL/6 mice [7]; C57BL/6, mouse, in vivo): 100%; maximum tolerated dose relative to MPLA (C57BL/6 mice [7]; mouse, in vivo): > 10 times; serum TNFα (C57BL/6 mice [7]; mouse, in vivo): significantly lower level; bioavailability [10]: ~15%"
